As a reminder, the Kd is the concentration at which binding is half-saturated. Lower therefore signals tighter binding.

The target of one assay is Galectin-1 (Homo sapiens (Human), UniProt P09382). Put plainly: Fluorescence anisotropy assay, compound as inhibitor of galectin / fluorescein tagged saccharide probe interaction. It counts as binding. The protocol:
(§1) The affinity of Example 1-32 for galectins were determined by a fluorescence anisotropy assay where the compound was used as an inhibitor of the interaction between galectin and a fluorescein tagged saccharide probe as described Sörme, P., Kahl-Knutsson, B., Huflejt, M., Nilsson, U. J., and Leffler H. (2004) Fluorescence polarization as an analytical tool to evaluate galectin-ligand interactions. Anal. Biochem. 334: 36-47, (Sörme et al., 2004) and Monovalent interactions of Galectin-1 By Salomonsson, Emma; Larumbe, Amaia; Tejler, Johan; Tullberg, Erik; Rydberg, Hanna; Sundin, Anders; Khabut, Areej; Frejd, Torbjorn; Lobsanov, Yuri D.; Rini, James M.; et al, From Biochemistry (2010), 49(44), 9518-9532, (Salonmonsson et al., 2010).
(In fluorescence polarisation assays a small probe gives low polarisation when free and higher when bound to something large.)

The target of another assay is Galectin-3 (Homo sapiens (Human), UniProt P17931). Described as above. It counts as binding. As to the method: as §1
Galectin-3, sequence (P17931 whole entry): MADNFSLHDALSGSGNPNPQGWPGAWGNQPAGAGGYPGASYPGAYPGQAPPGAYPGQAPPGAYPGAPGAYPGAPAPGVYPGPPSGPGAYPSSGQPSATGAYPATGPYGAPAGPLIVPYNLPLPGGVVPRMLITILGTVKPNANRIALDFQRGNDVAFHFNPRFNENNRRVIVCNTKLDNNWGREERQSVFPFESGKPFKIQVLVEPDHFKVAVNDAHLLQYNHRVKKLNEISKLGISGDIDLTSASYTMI

In the case of `N#Cc1cc(F)c(S[C@H]2OC(CO)[C@H](O)[C@H](n3cc(-c4ccsc4)nn3)C2O)cc1Cl` (stereo partly drawn) [Example 2, 2-Chloro-5-fluoro-benzonitril-4-yl 3-deoxy-3-[4-(3-thiophenyl)-1H-1,2,3-triazol-1-yl]-1-thio-α-D-galactopyranoside], the Kd at Galectin-1 is 190 nM; on Galectin-3 it was 1950 nM.
As to `OC[C@H]1O[C@H](Sc2cncc(Br)c2)[C@H](O)[C@@H](n2cc(-c3ccsc3)nn2)[C@H]1O` [Example 3, 5-Bromopyridin-3-yl 3-deoxy-3-[4-(3-thiophenyl)-1H-1,2,3-triazol-1-yl]-1-thio-α-D-galactopyranoside], the Kd turned out to be 680 nM on Galectin-1 and 1700 nM on Galectin-3.
For `OC[C@H]1O[C@H](Sc2ccc(Cl)c(Cl)c2)[C@H](O)[C@@H](n2cc(-c3ccc(F)cn3)nn2)[C@H]1O` [Example 6, 3,4-Dichlorophenyl 3-deoxy-3-[4-(5-fluoro-2-pyridyl)-1H-1,2,3-triazol-1-yl]-1-thio-α-D-galactopyranoside], the Kd at Galectin-1 was 240 nM; at Galectin-3, 690 nM.
With `OC[C@H]1O[C@H](Sc2cncc(Br)c2)[C@H](O)[C@@H](n2cc(-c3cccs3)nn2)[C@H]1O` [Example 7, 5-Bromopyridin-3-yl 3-deoxy-3-[4-(2-thiophenyl)-1H-1,2,3-triazol-1-yl]-1-thio-α-D-galactopyranoside], the results for the Kd at Galectin-1 and at Galectin-3 were 450 nM and 1250 nM, respectively.
For `OC[C@H]1O[C@H](Sc2cc(Cl)c(F)c(Cl)c2)[C@H](O)[C@@H](n2cc(-c3cccs3)nn2)[C@H]1O` [Example 8, 3,5-Dichloro-4-fluoro-phenyl 3-deoxy-3-[4-(2-thiophenyl)-1H-1,2,3-triazol-1-yl]-1-thio-α-D-galactopyranoside], the Kd on Galectin-1 is 920 nM; at Galectin-3 it was 2300 nM.
With `OC[C@H]1O[C@H](Sc2ccc(Cl)c(Cl)c2)[C@H](O)[C@@H](n2cc(-c3ccc(F)s3)nn2)[C@H]1O` [Example 9, 3,4-Dichlorophenyl 3-deoxy-3-[4-(5-fluoro-2-thiophenyl)-1H-1,2,3-triazol-1-yl]-1-thio-α-D-galactopyranoside], the figures for the Kd at Galectin-1 and on Galectin-3 were 550 nM and 970 nM, respectively.
In the case of `OC[C@H]1O[C@H](Sc2cncc(Br)c2)[C@H](O)[C@@H](n2cc(-c3cscn3)nn2)[C@H]1O` [Example 10, 5-Bromopyridin-3-yl 3-deoxy-3-[4-(4-thiazolyl)-1H-1,2,3-triazol-1-yl]-1-thio-α-D-galactopyranoside], the Kd on Galectin-1 came to 250 nM; at Galectin-3 it was 4100 nM.
As for `OC[C@H]1O[C@H](Sc2cnc(C(F)(F)F)c(Br)c2)[C@H](O)[C@@H](n2cc(-c3cscn3)nn2)[C@H]1O` [Example 11, 5-Bromo-6-trifluoromethyl-pyridin-3-yl 3-deoxy-3-[4-(4-thiazolyl)-1H-1,2,3-triazol-1-yl]-1-thio-α-D-galactopyranoside], the Kd at Galectin-1 was 170 nM; on Galectin-3, 2900 nM.
In the case of `OC[C@H]1O[C@H](Sc2ccc(Cl)c(Cl)c2)[C@H](O)[C@@H](n2cc(-c3cscn3)nn2)[C@H]1O` [Example 12, 3,4-Dichlorophenyl 3-deoxy-3-[4-(4-thiazolyl)-1H-1,2,3-triazol-1-yl]-1-thio-α-D-galactopyranoside], the Kd came out at 310 nM on Galectin-1 and 5300 nM at Galectin-3.
Turning to `N#Cc1ccc(S[C@H]2OC(CO)[C@H](O)[C@H](n3cc(-c4cscn4)nn3)C2O)cc1Cl` (stereo partly drawn) [Example 13, 2-Chloro-benzonitril-4-yl 3-deoxy-3-[4-(4-thiazolyl)-1H-1,2,3-triazol-1-yl]-1-thio-α-D-galactopyranoside], the Kd on Galectin-1 was 370 nM; at Galectin-3, 6100 nM.
In the same order, the values of `Cc1nc(-c2cn([C@@H]3[C@@H](O)[C@@H](Sc4cncc(Br)c4)O[C@H](CO)[C@@H]3O)nn2)cs1` [Example 15, 5-Bromopyridin-3-yl 3-deoxy-3-[4-(2-methyl-4-thiazolyl)-1H-1,2,3-triazol-1-yl]-1-thio-α-D-galactopyranoside] are 640 nM and 3200 nM.
For the compound `N#Cc1c(Cl)cc(S[C@H]2OC(CO)[C@H](O)[C@H](n3cc(-c4nccs4)nn3)C2O)cc1Cl` (stereo partly drawn) [Example 16, 2,6-Dichloro-bensonitril-4-yl 3-deoxy-3-[4-(2-thiazolyl)-1H-1,2,3-triazol-1-yl]-1-thio-α-D-galactopyranoside], the values for the Kd on Galectin-1 and at Galectin-3 were 800 nM and 12000 nM, respectively.
As to `OC[C@H]1O[C@H](Sc2cc(Cl)c(Cl)c(Cl)c2)[C@H](O)[C@@H](n2cc(-c3nccs3)nn2)[C@H]1O` [Example 17, 3,4,5-Trichlorophenyl 3-deoxy-3-[4-(2-thiazolyl)-1H-1,2,3-triazol-1-yl]-1-thio-α-D-galactopyranoside], the Kd on Galectin-1 is 610 nM; on Galectin-3 it was 1300 nM.
On the same counts, the results for `OC[C@H]1O[C@H](Sc2ccc(Cl)c(Cl)c2)[C@H](O)[C@@H](n2cc(-c3nccs3)nn2)[C@H]1O` [Example 18, 3,4-Dichlorophenyl 3-deoxy-3-[4-(2-thiazolyl)-1H-1,2,3-triazol-1-yl]-1-thio-α-D-galactopyranoside] are 240 nM and 4100 nM.
On to `OC[C@H]1O[C@H](Sc2cc(Cl)c(Cl)c(Cl)c2)[C@H](O)[C@@H](n2cc(-c3nncs3)nn2)[C@H]1O` [Example 19, 3,4,5-Trichlorophenyl 3-deoxy-3-[4-(1,3,4-thiadiazol-2-yl)-1H-1,2,3-triazol-1-yl]-1-thio-α-D-galactopyranoside], for which the Kd was 350 nM on Galectin-1 and 4400 nM on Galectin-3.
On the same counts, the results for `OCC1O[C@H](Sc2cncc(Br)c2)C(O)[C@@H](n2cc(-c3nccs3)nn2)[C@H]1O` (stereo partly drawn) [Example 20, 5-Bromopyrdin-3-yl 3-deoxy-3-[4-(2-thiazolyl)-1H-1,2,3-triazol-1-yl]-1-thio-α-D-galactopyranoside] are 550 nM and 4600 nM.
In the same order, the values of `OC[C@H]1O[C@H](Sc2cncc(Cl)c2)[C@H](O)[C@@H](n2cc(-c3nccs3)nn2)[C@H]1O` [Example 21, 5-Chloropyridin-3-yl 3-deoxy-3-[4-(2-thiazolyl)-1H-1,2,3-triazol-1-yl]-1-thio-α-D-galactopyranoside] are 220 nM and 1800 nM.
In the same order, the values of `N#Cc1ncc(Br)cc1S[C@H]1O[C@H](CO)[C@H](O)[C@H](n2cc(-c3nccs3)nn2)[C@H]1O` [Example 22, 5-Bromo-2-cyano-pyridine-3-yl 3-deoxy-3-[4-(2-thiazolyl)-1H-1,2,3-triazol-1-yl]-1-thio-α-D-galactopyranoside] are 200 nM and 1200 nM.
On to `N#Cc1ncc(S[C@H]2O[C@H](CO)[C@H](O)[C@H](n3cc(-c4nccs4)nn3)[C@H]2O)cc1Cl` [Example 23, 5-Chloro-6-cyano-pyridine-3-yl 3-deoxy-3-[4-(2-thiazolyl)-1H-1,2,3-triazol-1-yl]-1-thio-α-D-galactopyranoside], for which the results for the Kd at Galectin-1 and at Galectin-3 were 440 nM and 4400 nM, respectively.
In the case of `OC[C@H]1O[C@H](Sc2cc(Cl)cc(Cl)c2)[C@H](O)[C@@H](n2cc(-c3nccs3)nn2)[C@H]1O` [Example 24, 3,5-Dichlorophenyl 3-deoxy-3-[4-(2-thiazolyl)-1H-1,2,3-triazol-1-yl]-1-thio-α-D-galactopyranoside], the Kd came out at 340 nM on Galectin-1 and 1600 nM on Galectin-3.

These data come from patent US10988502B2, “Alpha-D-galactoside inhibitors of galectins” (GALECTO BIOTECH AB, priority 2016, dated 2021).
